US20220127298A1, “THERMOSPOROTHRIX HAZAKENSIS-DERIVED ANTIBACTERIALLY ACTIVE SUBSTANCE” (KENNAN EISEI KOGYO CO., LTD., priority 2019, published 2022)
≈ marks a conversion by molar mass, not a printed value.

Key:
Assay type in all cases: cell-based
[1] = system: Bacillus subtilis NBRC 3134^T; assay: Measurement of minimum inhibitory concentration, dilution method with liquid culture medium; details: NBRC3134, LB liquid medium, 37° C., 135 rpm, 18 hours, visual observation and OD600
From the text: The minimum inhibitory concentration (MIC) is one of the antibiotic susceptibility tests, and means the minimum concentration of an antimicrobial substance at which the visible growth of a microorganism can be inhibited. In the research field, the MIC measurement is used, for example, to compare the effects of a new antibiotic substance and a conventional substance, or to examine actions on several strains, and is regarded as an important criterion for evaluating antibiotic substances. The MIC of “HK-1” which was obtained hereunder as the antibacterial active substance was measured using the dilution method with a liquid culture medium.
A piece of ice out of a glycerol stock of G. stearothermophilus stored at −80° C. was planarly inoculated on the LB agar culture medium with a toothpick. This was incubated at 60° C. for 18 hours. One (1) cm^2 of the culture medium was excavated with a toothpick, placed into a long test tube containing 10 mL of a liquid LB culture medium, and subjected to a shaking culture at 60° C., and 300 rpm, for 18 hours. The culture solution was diluted with sterile water to about McF standard No. 1.
The preparation was performed in the same manner as in 1 above, only except that the temperature was changed to 37° C.
Two (2) mg of HK-1 was weighed out into a 2 mL Eppendorf tube using an electric balance. […]

[2] = system: Bacillus subtilis NBRC 3134^T; assay: Antibacterial activity test in changing pH, paper disk assay; details: 1000 γ in methanol, 50 μL on paper disk, 37° C., 18 hours
Experimental: Into a 50-mL Falcon tube, 20 mg of HK-1 was weighed out using an electric balance, and therein 20 mL of methanol (1000 γ) was added followed by gentle stirring. Each 3.3 mL was aliquoted to totally two 15-mL Falcon tubes. To one of them 20 μL of 1 N sodium hydroxide was added followed by gentle stirring. The pH was tested with a pH test paper. Ten (10) μL of each sample was subjected to HPLC. The HPLC analysis conditions are as follows. The stability of a compound is regarded as one of the important information for evaluating a substance. This is because, even if the external environment changes, insofar as the compound itself is stable, it can be applied in various situations, and the information leads to acquisition of biological knowledges. Therefore, the stability of the activity was examined by measuring antibacterial activities with respect to G. stearothermophilus, and B. subtilis using the solution prepared in the above “1. Antibacterial spectrum test”. (1) In a 200-mL Erlenmeyer flask, 100 mL of a NB culture medium was prepared and sterilized in an autoclave (121° C., 20 min). (2) After cooling to 50° C. or lower, 100 μL of the B. subtilis spore suspension was added. […] The culture medium was taken out from the incubator, and the diameter of the inhibition ring was measured with calipers (Kanon hardened stainless 150 mm).

[3] = system: Geobacillus stearothermophilus ATCC 7953; assay: as above; details: 1000 γ in methanol, 50 μL on paper disk, 50° C., 18 hours
Experimental: Into a 50-mL Falcon tube, 20 mg of HK-1 was weighed out using an electric balance, and therein 20 mL of methanol (1000 γ) was added followed by gentle stirring. Each 3.3 mL was aliquoted to totally two 15-mL Falcon tubes. To one of them 20 μL of 1 N sodium hydroxide was added followed by gentle stirring. The pH was tested with a pH test paper. Ten (10) μL of each sample was subjected to HPLC. The HPLC analysis conditions are as follows. The stability of a compound is regarded as one of the important information for evaluating a substance. This is because, even if the external environment changes, insofar as the compound itself is stable, it can be applied in various situations, and the information leads to acquisition of biological knowledges. Therefore, the stability of the activity was examined by measuring antibacterial activities with respect to G. stearothermophilus, and B. subtilis using the solution prepared in the above “1. Antibacterial spectrum test”. (1) Each 10 mL of the (autoclave treated) LB culture medium (see Example 1) was dispensed into two long test tubes. (2) Into each long test tube, 50 μL of a commercially available G. stearothermophilus spore suspension was seeded. […] The culture medium was taken out from the incubator, and the diameter of the inhibition ring was measured with calipers (Kanon hardened stainless 150 mm).

**Q.** `COc1cc(OOc2cc(OC)c3c(c2-c2c(O)c(Cl)c(C)c4c2C(O)c2c(Cl)c(O)cc(O)c2C4=O)C(OC2OC(C)C(O)C2O)c2c(Cl)c(OC)c(Cl)c(C)c2C3=O)c(-c2c(O)c(Cl)c(C)c3c2C(O)c2c(Cl)c(O)cc(O)c2C3=O)c2c1C(=O)c1c(C)c(Cl)c(OC)c(Cl)c1C2OC1OC(C)C(O)C1O` (centres unmarked) [HK-1] was tested. Which MIC [1] did it give?
**A.** 0.78 µg/mL (≈ 0.474 µM)

**Q.** And the inhibition ring diameter ([2]; solution with pH adjusted to 9)?
**A.** 20.2 mm

**Q.** And the inhibition ring diameter ([2]; solution with pH not adjusted)?
**A.** 18.5 mm

**Q.** And the inhibition ring diameter ([3]; solution with pH adjusted to 9)?
**A.** 22.6 mm

**Q.** What about the inhibition ring diameter ([3]; solution with pH not adjusted) of the same molecule?
**A.** 21.9 mm
